Laboratory results reported in ChEMBL document CHEMBL1201862, “PubChem BioAssay data set” (2004).
Several values for one entry are separate records, joined by “and”; a condition that tells them apart may be missing. Equal entries are not always repeated. Structures can show the parent of a compound that is named as a salt. Activity calls are given as the source filed them.

Experiments:
[1] = HeLa cell cytotoxicity, dose response, cytotoxicity control for MgcRacGAP inhibitor project (AID 624300); format: functional
[2] = target: T1, Rac GTPase-activating protein 1 (Homo sapiens, UniProt Q9H0H5); assay: MgcRacGAP GTPase-activating activity inhibitors, confirmation, biochemical, ADP Hunter fluorescence, primary and confirmatory (AID 624330); format: functional
T1 sequence (Q9H0H5 whole entry): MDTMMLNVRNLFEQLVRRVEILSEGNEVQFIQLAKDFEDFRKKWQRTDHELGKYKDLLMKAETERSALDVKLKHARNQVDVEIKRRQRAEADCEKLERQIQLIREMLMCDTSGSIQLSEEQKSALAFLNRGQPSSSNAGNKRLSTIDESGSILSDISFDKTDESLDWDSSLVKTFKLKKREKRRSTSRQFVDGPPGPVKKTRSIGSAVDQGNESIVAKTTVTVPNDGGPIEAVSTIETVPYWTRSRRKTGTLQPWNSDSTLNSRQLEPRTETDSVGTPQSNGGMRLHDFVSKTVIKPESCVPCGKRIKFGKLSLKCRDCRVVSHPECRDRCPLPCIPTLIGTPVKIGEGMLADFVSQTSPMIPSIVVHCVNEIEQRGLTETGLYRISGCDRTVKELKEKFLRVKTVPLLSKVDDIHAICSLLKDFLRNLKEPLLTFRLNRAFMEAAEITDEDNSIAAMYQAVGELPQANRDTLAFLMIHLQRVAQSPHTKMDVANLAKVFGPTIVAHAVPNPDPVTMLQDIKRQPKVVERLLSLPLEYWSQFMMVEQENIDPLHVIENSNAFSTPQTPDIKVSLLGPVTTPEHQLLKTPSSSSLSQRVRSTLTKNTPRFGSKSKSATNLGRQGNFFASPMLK

[3] = target: T2, Trace amine-associated receptor 1 (Homo sapiens, UniProt Q96RJ0); assay: Fluorescence-based cell-based high throughput dose response assay to identify agonists of the human trace amine associated receptor 1 (TAAR1).; format: functional
T2 sequence (Q96RJ0 whole entry): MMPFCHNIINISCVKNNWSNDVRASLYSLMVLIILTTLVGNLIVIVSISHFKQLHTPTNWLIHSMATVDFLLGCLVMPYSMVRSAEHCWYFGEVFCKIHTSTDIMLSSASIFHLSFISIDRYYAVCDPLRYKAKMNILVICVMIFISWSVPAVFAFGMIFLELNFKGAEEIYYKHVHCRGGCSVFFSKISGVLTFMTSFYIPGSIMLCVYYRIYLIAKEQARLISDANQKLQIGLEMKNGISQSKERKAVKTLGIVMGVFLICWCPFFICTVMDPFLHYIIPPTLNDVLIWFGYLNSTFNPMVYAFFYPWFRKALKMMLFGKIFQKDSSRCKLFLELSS

[4] = target: T2, Trace amine-associated receptor 1; assay: Counterscreen for agonists of the human trace amine associated receptor 1 (hTAAR1): Fluorescence-based cell-based high throughput dose response assay to identify hTAAR1 agonist that also desensitize TAAR1 receptor response.; format: functional
cells [5] = format: functional, cell-based
cells [6] = format: functional, cell-based; remark: listed apart in the source
[7] = CRF-BP/CRF-R2 complex antagonists, dose response, cell-based, uHTS hits, 384-well (AID 651639); format: functional, Homo sapiens; settings: read-out: IC50_Mean
[8] = target: T3, Corticotropin-releasing factor receptor 2/Corticotropin-releasing factor-binding protein (Homo sapiens, UniProt P24387+Q13324); assay: Dose Response confirmation of uHTS hits for small molecule antagonists of the CRF-binding protein and CRF-R2 receptor complex.; format: functional; settings: read-out: IC50_Mean
T3 sequence (Q13324 whole entry): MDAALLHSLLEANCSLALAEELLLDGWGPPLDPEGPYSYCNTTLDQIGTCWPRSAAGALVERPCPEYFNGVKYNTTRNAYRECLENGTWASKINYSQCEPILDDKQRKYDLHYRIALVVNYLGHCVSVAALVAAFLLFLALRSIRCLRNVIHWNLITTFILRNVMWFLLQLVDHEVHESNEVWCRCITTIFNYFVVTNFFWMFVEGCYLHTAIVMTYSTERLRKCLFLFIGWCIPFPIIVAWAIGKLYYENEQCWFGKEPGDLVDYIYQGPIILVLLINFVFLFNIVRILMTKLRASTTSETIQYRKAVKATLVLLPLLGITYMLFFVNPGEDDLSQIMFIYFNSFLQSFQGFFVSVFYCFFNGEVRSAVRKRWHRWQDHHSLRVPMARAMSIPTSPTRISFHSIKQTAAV
T3 sequence (P24387 whole entry): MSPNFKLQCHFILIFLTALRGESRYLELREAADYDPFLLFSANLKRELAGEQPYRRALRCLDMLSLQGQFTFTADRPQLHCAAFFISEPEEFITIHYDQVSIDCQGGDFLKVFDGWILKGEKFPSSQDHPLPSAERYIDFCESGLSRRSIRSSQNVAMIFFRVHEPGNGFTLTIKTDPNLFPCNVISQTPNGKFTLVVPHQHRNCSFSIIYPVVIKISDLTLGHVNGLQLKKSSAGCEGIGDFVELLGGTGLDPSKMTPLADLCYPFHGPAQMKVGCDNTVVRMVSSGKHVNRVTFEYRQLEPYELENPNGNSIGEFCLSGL

[9] = target: T3, Corticotropin-releasing factor receptor 2/Corticotropin-releasing factor-binding protein; assay: activators of CRF receptor 2 with binding protein – uHTS hits, confirmation (AID 602473); format: functional; settings: read-out: EC50_Mean
[10] = target: 5-hydroxytryptamine receptor 2A (Mus musculus, UniProt P35363); format: functional, cell-based;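 further: CHO-K1 cells with tagged receptor and beta-arrestin; agonist potency measured as compound-induced activation of the receptor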
Sequence of 5-hydroxytryptamine receptor 2A (P35363 whole entry): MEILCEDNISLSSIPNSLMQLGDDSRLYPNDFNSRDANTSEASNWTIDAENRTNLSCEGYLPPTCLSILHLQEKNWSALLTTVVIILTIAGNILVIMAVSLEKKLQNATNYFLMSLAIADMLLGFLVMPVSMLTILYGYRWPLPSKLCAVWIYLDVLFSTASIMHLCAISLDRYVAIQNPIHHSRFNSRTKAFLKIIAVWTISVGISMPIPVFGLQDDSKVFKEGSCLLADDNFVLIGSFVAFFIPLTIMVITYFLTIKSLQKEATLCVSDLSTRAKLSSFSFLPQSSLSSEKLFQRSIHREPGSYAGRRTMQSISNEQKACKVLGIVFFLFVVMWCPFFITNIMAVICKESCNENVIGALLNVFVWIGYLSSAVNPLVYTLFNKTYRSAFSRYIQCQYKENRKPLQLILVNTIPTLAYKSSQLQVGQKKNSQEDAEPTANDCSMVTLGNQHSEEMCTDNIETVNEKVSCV

Mu-type opioid receptor = Mu-type opioid receptor (Homo sapiens, UniProt P35372); format: functional, cell-based;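 further: U2OS cells with beta-arrestin recruitment to OPRM1 by beta-gal complementation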
Sequence of Mu-type opioid receptor (P35372 whole entry): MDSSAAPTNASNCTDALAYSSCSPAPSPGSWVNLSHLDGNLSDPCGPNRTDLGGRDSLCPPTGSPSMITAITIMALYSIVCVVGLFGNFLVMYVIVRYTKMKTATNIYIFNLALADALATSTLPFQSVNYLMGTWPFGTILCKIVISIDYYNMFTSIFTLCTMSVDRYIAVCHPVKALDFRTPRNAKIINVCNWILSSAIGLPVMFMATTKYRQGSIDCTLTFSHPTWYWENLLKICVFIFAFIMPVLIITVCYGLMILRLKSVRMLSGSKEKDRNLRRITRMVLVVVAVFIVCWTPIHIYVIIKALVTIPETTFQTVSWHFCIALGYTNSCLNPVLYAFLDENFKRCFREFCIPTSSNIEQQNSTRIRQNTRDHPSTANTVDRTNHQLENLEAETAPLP

[11] = ADAM10 protease inhibitors, dose response, selectivity assay for ADAM17 exosite inhibitor project, biochemical, FRET peptide substrate, recombinant human ADAM10 (AID 743259);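 further: ADAM10 enzyme cleaving a FRET peptide substrate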
[12] = target: Disintegrin and metalloproteinase domain-containing protein 17 (Homo sapiens, UniProt P78536); assay: exosite inhibitors of ADAM17, dose response, biochemical (AID 743260)
Sequence of Disintegrin and metalloproteinase domain-containing protein 17 (P78536 whole entry, the tested form may be a part): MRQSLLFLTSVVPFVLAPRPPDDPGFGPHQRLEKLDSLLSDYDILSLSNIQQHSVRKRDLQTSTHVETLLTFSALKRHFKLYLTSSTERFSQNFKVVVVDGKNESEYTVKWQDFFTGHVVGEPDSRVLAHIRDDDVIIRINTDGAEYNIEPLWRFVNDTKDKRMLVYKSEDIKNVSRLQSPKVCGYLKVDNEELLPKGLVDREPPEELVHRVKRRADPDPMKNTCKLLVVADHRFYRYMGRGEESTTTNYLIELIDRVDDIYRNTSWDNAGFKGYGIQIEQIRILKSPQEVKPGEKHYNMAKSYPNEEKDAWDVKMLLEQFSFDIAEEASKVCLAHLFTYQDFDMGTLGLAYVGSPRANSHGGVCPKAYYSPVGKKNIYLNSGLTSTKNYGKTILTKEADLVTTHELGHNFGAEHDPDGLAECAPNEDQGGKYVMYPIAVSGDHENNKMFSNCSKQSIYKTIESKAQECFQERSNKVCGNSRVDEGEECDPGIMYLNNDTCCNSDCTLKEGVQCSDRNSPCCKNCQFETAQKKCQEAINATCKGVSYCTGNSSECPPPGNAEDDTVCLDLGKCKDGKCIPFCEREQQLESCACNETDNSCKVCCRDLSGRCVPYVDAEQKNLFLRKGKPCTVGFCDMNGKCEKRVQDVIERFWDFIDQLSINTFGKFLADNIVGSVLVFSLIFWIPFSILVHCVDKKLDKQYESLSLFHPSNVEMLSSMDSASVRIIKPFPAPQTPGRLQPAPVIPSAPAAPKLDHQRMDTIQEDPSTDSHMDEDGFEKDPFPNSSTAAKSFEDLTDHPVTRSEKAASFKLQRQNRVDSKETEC

[13] = target: T4, DNA repair protein RAD52 homolog (Homo sapiens, UniProt P43351); format: functional, biochemical
T4 sequence (P43351 whole entry): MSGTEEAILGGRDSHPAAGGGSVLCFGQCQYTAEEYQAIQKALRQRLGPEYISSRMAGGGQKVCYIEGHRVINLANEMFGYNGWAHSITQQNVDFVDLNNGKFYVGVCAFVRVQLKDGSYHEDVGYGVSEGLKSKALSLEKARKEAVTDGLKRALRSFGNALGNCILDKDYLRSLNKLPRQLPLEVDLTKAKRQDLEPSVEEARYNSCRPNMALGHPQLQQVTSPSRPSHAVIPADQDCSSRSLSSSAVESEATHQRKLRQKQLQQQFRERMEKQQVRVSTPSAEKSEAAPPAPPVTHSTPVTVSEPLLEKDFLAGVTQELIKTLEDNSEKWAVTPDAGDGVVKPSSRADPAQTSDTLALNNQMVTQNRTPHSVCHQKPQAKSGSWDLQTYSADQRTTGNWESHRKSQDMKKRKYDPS

H9c2 = assay: cells; format: functional, cell-based; settings: Rattus norvegicus, H9c2, Myocardium;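 further: confirmatory concentration-response retest of ultra-high-throughput screening hits for modulation of myocardial damage; cell death induced by hydrogen peroxide oxidative stress; compound pretreatment for 60 min then peroxide exposure for 2 h; potency is for protecting the cells against peroxide damage rather than for killing them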
[14] = target: T5, DNA repair and recombination protein RAD54-like (Homo sapiens, UniProt Q92698); assay: inhibitors of human RAD54 branch migration, confirmation, biochemical, fluorescence, cherry-picked samples, dose series (AID 651657); format: functional
T5 sequence (Q92698 whole entry): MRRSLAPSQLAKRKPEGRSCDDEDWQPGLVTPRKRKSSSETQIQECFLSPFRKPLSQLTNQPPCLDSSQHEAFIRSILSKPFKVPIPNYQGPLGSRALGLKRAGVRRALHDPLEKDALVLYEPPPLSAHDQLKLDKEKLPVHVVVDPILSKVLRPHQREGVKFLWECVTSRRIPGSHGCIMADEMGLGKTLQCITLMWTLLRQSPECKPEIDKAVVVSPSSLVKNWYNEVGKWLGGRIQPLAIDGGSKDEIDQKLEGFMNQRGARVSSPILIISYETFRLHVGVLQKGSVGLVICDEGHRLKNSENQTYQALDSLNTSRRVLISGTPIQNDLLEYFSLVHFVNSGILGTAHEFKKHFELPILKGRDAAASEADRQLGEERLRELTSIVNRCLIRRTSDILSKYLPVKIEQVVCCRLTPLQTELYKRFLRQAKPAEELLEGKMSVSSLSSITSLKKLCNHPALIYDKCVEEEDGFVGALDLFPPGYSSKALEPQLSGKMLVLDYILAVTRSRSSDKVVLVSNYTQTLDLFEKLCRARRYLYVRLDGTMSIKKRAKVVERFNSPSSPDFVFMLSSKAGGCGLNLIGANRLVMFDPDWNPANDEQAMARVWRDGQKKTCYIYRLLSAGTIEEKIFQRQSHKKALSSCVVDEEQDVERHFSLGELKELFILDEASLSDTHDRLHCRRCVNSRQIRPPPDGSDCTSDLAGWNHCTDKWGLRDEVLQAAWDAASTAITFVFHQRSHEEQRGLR

H4 = assay: Luminescence Cell-Based Dose Response HTS to Identify Activators of 5'UTR Stem-Loop Driven Prion Protein mRNA Translation in H4 Neuroglioblastoma Cells. [Related pubchem assays: 1829 (Project Summary), 1814 (Primary HTS)]; format: functional; settings: Homo sapiens
[15] = Luminescence Cell-Based Dose Response HTS to Identify Activators of Luciferase Translation or Activity in H4 […] Cells. [Related pubchem assays: 1829 (Project Summary), 1814 (Primary HTS)]; format: functional
[16] = Luminescence Cell-Based Dose Confirmation HTS to Identify Activators of 5'UTR Stem-Loop Driven Alpha-Synuclein mRNA Translation in H4 Neuroglioblastoma Cells. [Related pubchem assays: 1829 (Project Summary), 1814 (Primary HTS)]; format: functional
[17] = Luminescence-based cell-based high throughput dose response assay to identify activators of the DAF-12 from the parasite S. stercoralis (ssDAF-12).; format: functional
Large T antigen = Large T antigen (Simian virus 40, UniProt P03070); format: functional, Betapolyomavirus macacae;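 further: Confirmatory-stage PubChem screen for compounds that inhibit SV40 T antigen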
Sequence of Large T antigen (P03070 whole entry, the tested form may be a part): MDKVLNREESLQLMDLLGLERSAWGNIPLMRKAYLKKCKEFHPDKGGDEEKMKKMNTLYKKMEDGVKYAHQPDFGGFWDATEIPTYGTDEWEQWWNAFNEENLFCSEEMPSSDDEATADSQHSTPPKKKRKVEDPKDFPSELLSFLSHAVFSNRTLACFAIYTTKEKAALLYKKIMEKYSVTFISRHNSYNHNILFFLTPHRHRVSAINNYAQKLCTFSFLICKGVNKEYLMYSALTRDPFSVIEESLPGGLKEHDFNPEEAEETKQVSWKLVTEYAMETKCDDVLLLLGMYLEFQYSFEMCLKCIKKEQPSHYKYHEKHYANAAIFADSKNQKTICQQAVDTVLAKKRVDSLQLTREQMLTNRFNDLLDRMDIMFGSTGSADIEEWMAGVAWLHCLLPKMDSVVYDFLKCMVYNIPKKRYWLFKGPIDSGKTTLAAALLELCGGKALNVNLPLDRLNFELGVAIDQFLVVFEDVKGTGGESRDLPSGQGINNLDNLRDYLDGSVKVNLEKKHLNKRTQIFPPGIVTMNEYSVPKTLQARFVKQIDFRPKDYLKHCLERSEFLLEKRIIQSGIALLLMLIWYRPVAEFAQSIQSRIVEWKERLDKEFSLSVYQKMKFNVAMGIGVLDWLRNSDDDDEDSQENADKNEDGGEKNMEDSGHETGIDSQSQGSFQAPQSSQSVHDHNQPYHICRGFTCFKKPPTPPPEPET

[18] = target: T6, Oxysterols receptor LXR-beta (Homo sapiens, UniProt P55055); assay: LXR agonists, Gal4 luciferase reporter, dose response, counter-screen for ssDAF-12 agonist project, cell-based, luminescence, HEK293, S. stercoralis campaign (AID 720737); format: functional; settings: read-out: IC50 (the source's name)
T6 sequence (P55055 whole entry): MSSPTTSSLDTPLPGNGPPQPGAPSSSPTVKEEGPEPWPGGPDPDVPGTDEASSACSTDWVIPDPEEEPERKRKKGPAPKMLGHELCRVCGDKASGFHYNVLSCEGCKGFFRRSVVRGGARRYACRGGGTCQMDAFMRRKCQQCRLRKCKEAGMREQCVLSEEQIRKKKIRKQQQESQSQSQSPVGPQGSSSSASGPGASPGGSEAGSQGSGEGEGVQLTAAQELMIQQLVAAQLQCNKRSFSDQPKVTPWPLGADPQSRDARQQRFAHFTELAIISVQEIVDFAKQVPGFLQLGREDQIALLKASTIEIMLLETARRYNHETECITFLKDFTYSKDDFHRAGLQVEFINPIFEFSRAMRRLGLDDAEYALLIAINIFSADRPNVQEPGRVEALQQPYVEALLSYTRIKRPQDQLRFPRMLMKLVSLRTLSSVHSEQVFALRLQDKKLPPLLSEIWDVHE

Albumin = Albumin (Bos taurus, UniProt P02769); assay: Counterscreen for inhibitors of T-cell receptor (TCR)-CD3 interaction: Fluorescence-based biochemical high throughput dose response assay to identify inhibitors of T-cell receptor (TCR)-CD3 interaction using a TAMRA-labeled BSA probe.; format: functional
Sequence of Albumin (P02769 whole entry): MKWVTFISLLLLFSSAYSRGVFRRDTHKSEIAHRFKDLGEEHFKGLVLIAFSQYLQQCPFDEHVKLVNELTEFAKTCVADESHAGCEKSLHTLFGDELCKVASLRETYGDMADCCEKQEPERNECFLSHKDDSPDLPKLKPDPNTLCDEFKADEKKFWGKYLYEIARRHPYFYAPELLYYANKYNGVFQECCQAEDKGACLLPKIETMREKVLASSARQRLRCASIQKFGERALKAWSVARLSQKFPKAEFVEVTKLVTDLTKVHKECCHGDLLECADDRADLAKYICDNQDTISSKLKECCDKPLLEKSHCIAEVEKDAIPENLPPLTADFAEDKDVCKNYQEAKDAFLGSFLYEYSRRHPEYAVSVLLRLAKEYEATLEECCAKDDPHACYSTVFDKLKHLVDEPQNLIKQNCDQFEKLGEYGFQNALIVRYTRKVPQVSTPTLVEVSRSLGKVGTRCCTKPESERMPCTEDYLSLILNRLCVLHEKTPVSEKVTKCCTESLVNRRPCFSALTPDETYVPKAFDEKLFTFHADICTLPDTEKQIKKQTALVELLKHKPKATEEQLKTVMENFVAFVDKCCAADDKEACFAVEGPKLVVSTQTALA

CCN1C(=O)/C(=C2/C=Cc3cc(C)ccc3N2CC)N(C)C1=S
CC50 [1]: 100 µM (active)
IC50 [2]: 60.4 µM (active)

CC(N)Cc1ccc(O)cc1 (stereo unspecified) [HYDROXYAMPHETAMINE HYDROBROMIDE]
EC50 [3]: 1.71 µM (active) and 1.18 µM (active)
IC50 [4]: 11.8 µM (inactive) and 5.84 µM (active)
EC50 (cells [5]): > 29.9 µM (inactive)
IC50 (cells [6]): > 29.9 µM (inactive)

CC(=O)NC(Cc1cccc(C)c1)C(=O)NC1CCN(c2ncccc2[N+](=O)[O-])CC1 (stereo unspecified)
IC50 [7]: 18.8 µM (active)
IC50 [8]: 5130 nM (active)
EC50 [9]: > 53 µM (inactive)

COc1cc(C(C)=O)ccc1OCC(O)CN1CCN(c2ccccn2)CC1 (stereo unspecified)
EC50 [10]: 0.321 µM (active)
EC50 (Mu-type opioid receptor): 92.5 µM (inactive)

COC(=O)c1ccc(CN2C(=O)C(C)N(C(=O)c3c(F)cccc3F)c3ccccc32)cc1 (stereo unspecified)
IC50 [11]: > 69.5 µM (inactive)
IC50 [7]: 17 µM (active)
IC50 [8]: < 368 nM (active)
IC50 [12]: > 69.5 µM (inactive)
EC50 [9]: > 53 µM (inactive)

O=C(NCCc1ccccc1)c1nc2nc(-c3cccs3)cc(C(F)(F)F)n2n1
EC50 [3]: 346 nM (active)
IC50 [4]: 1.91 µM (active)
EC50 (cells [5]): > 29.9 µM (inactive)
IC50 (cells [6]): 24.1 µM (inactive)

COc1cc(C2c3cc4c(cc3OC(NCCc3ccccc3)C2C)OCO4)cc(OC)c1OC (stereo unspecified)
EC50 [3]: 23.9 nM (active)
IC50 [4]: 0.261 µM (active)
EC50 (cells [5]): > 29.9 µM (inactive)
IC50 (cells [6]): > 29.9 µM (inactive)

COc1ccccc1-c1ccc(SCc2cccc(F)c2)nn1
IC50 [7]: > 20 µM (inactive)
IC50 [8]: < 368 nM (active)
EC50 [9]: > 53 µM (inactive)

COc1cc2nc(Nc3ccc(F)cc3)nc(N)c2cc1OC
AC50 [13]: 7.26 µM (active)
IC50 (H9c2): > 79 µM (inactive)
AC50 [14]: 49.9 µM (active)

CC1CCc2sc3nc(N4CCN(CCO)CC4)n4ncnc4c3c2C1 (stereo unspecified)
EC50 (H4): 34.7 µM (active)
AC50 [14]: 34.7 µM (active)
EC50 [15]: 8.04 µM (active)
EC50 [16]: 24.7 µM (active)

Clc1ccc(CN2CCN(c3ncccn3)CC2)c(Cl)c1
EC50 [10]: 1.29 µM (active)
EC50 (Mu-type opioid receptor): 92.5 µM (inactive)

CCOc1cc(/C=N/NC(=O)Nc2ccccc2)ccc1O
CC50 [1]: 100 µM (active)
IC50 [17]: > 67.6 µM (inactive)
EC50 (H4): 1.94 µM (active)
IC50 (Large T antigen): > 100 µM (active)
IC50 [2]: 32.5 µM (active)
EC50 [18]: > 67.6 µM (inactive)
EC50 [15]: 16.6 µM (active)

O=C(c1ccco1)N1CCN(CCCCN2C(=O)c3ccccc3C2=O)CC1
EC50 [10]: 76.1 µM (inactive)
EC50 (Mu-type opioid receptor): 92.5 µM (inactive)

CN=C(S)NNC(=O)c1oc2nc(-c3ccccc3)cc(-c3ccco3)c2c1N
IC50 (Albumin): > 94.1 µM (inactive)
